Where “and” joins values, the source holds several entries; their conditions need not be identical. Equal entries are not always repeated.
Legend:
[1] = Plasma LDH 4 hr after IV test agents (marker of liver, kidney, lung and heart injury); format: in vivo, mice; conditions: 4 hr IV
haptoglobin = assay: Renal cortical haptoglobin mRNA and protein after IV N-Mgb, SnPP or both; format: in vivo, mice
Source text: (§1) Cytoresistance-inducing reagents. […] (#Mb0360; Sigma) was used as the primary cytoresistance-inducing agent. However, because myoglobin (Mgb) has an inherent nephrotoxic potential (particularly under conditions of volume depletion and aciduria), two approaches were used to mitigate Mgb's potential adverse effects. First, the Mgb was converted into a nitrited form by the addition of equimolar amount of sodium (Na) nitrite. In this regard, nitrite is an ambidentate molecule that directly binds 1:1 to myoglobin Fe either via its oxygen or nitrogen component. Cotton et al. Advanced inorganic chemistry. Hobocken, NJ: Wiley-Interscience, 1999:1355; Silaghi-Dumitrescu et al. Nitric Oxide 2014; 42 C: 32-9. […] Rassaf et al. Circ Res 2014; 114:1601-10; Totzeck et al. Circulation 2012; 126:325-34 [J Clin Invest 1992; 89:989-95]; Totzeck et al. PLOS One 2014; 22: e105951; Hendgen-Cotta et al. Proc Natl Acad Sci USA 2008; 105:10256-61.
(§2) Thirty-two mice were divided into 4 equal groups: (1) control mice; (2) mice treated with 1 mg of N-Mgb injection (as a bolus through the tail vein); (3) mice treated with […] of SnPP (via tail vein); and (4) mice treated with combined N-Mgb 1 SnPP. After either 4 hours (n=16) or 18 hours (n=16), the mice were deeply anesthetized with pentobarbital (50 mg/kg), the abdomen was opened through a midline abdominal incision, and the kidneys were removed. To determine potential effects on extrarenal organs, a liver lobe and the heart were also removed. The tissues were iced and then extracted for protein and RNA (RNeasy Plus Mini; Qiagen, Valencia, California) and subjected to enzyme linked immunosorbent assay (ELISA) and reverse transcriptase polymerase chain reaction (RT-PCR) for HO-1, haptoglobin, and IL-10 protein and messenger RNAs (mRNAs). Zager et al. J Am Soc Nephrol 2014; 25:998-1012; Zager et al. Am J Physiol 2012; 303: F139-48. As an assessment of renal function, control mice and the 18 hour after N-Mgb+SnPP-treated mice had blood urea nitrogen (BUN) and plasma creatinine levels measured. Additionally, transverse 10% formalin fixed kidney sections ([…]) were cut and stained with hematoxylin and eosin (H&E) and periodic acid Schiff (PAS) to further assess potential injury.

IL-10 [2] = assay: Renal cortical IL-10 mRNA and protein after IV N-Mgb, SnPP or both; format: in vivo, mice; conditions: for Kidney protein: IL-10: control 304
Source text: as §1, §2

Male CD-1 mice [3] = assay: Glycerol model of rhabdomyolysis-induced AKI (Example 4); format: in vivo; conditions: IV pretreatment 18 hours before glycerol; 18 hours after glycerol
Protocol: Assessments of cytoresistance. Glycerol model of rhabdomyolysis-induced AKI. Twenty mice were divided into 4 equal groups (controls, mice treated with N-Mgb, SnPP, and mice treated with N-Mgb+SnPP tail vein injections) as described previously. 18 hours later, the mice were briefly anesthetized with isoflurane and immediately injected with 9 mL/kg of 50% glycerol, administered in equally divided doses into each hind limb. At 18 hours after glycerol injection, the mice were anesthetized with pentobarbital, the abdomen was opened, a blood sample for BUN and creatinine assessments was obtained from the vena cava, and the kidneys were resected. The control post-glycerol group and the N-Mgb+SnPP-pretreated glycerol group had kidney sections stained with H&E.
Calculations and statistics. All values are given as the mean […] standard error of the mean. Statistical comparisons were made by unpaired Student's t test. If multiple comparisons were made, the Bonferroni correction was applied. The severity of renal histologic injury in the glycerol AKI model was graded on a […] (least to most severe tubular necrosis and cast formation observed). The histologic results were compared by Wilcoxon rank sum test. Statistical significance was taken as a P value of <0.05.

HO-1 [4] = assay: Liver HO-1 mRNA and protein after IV N-Mgb, SnPP or both; format: in vivo, mice; conditions: for Liver mRNA: HO-1: control 1.1; for Liver protein: HO-1 protein: control 10.2
Protocol: as §2

HO-1 [5] = assay: Cardiac HO-1 mRNA and protein after IV N-Mgb, SnPP or both; format: in vivo, mice; conditions: for Cardiac mRNA: HO-1: control 0.07
Protocol: as §2

IL-10 [6] = assay: Cardiac IL-10 mRNA and protein after IV N-Mgb, SnPP or both; format: in vivo, mice; conditions: for Cardiac mRNA: IL-10: control 0.36
Protocol: as §2

Male CD-1 mice [7] = assay: Maleate model of AKI (FeS, SnPP, FeS+SnPP); format: in vivo; conditions: 1 mg FeS or 1 μmole SnPP IV alone 18 hrs before maleate
Source text: Methods. Male CD-1 mice (25-40 grams) Charles River, Wilmington, MA) were used for all experiments. They were housed under standard vivarium conditions with free food and water access. All experiments were approved by the Fred Hutchinson Cancer Research Center IACUC in accordance with NIH guidelines.
Effects of Fe sucrose (FeS)/tin protoporphyrin (SnPP) on AKI severity. Maleate model of AKI. When injected into rodents, maleate undergoes relatively selective proximal tubule cell uptake via organic anion transporters. Once intracellular accumulation occurs, maleate is a preferred substrate for succinyl-CoA: 3-oxoacid CoA transferase. […] Ample levels of CoA are essential for fatty acid “activation”, allowing for their subsequent metabolism through the Krebs cycle, yielding ATP. In the absence of this process, proximal tubule ATP depletion and cell injury result. Additionally, maleate conjugates the sulfhydryl group of glutathione (GSH), culminating in GSH depletion and potential oxidant tubular stress.
The following experiment tested whether FeS, SnPP or combined FeS+SnPP can mitigate this form of acute kidney injury (AKI). […] The severity of kidney injury was assessed by determining plasma blood urea nitrogen (BUN) and plasma creatinine (PCr) concentrations.

[8] = Berglund et al. Hepatology 1988; cited from earlier work

## C=Cc1c2[n-]c(c1C)/C=c1\[n-]/c(c(C)c1C=C)=C\c1[n-]c(c(CCC(=O)O)c1C)/C=c1\[n-]c(c(C)c1CCC(=O)O)=C2.[Sn+4] [SnPP, tin protoporphyrin, reference compound]
[1]; carrier 4.43
  Plasma LDH, Average: 4.51 Absorbance U LDH/ml
[1]; individual subjects
  Plasma LDH: 5.00 Absorbance U LDH/ml and 3.23 Absorbance U LDH/ml and 4.54 Absorbance U LDH/ml and 5.29 Absorbance U LDH/ml
haptoglobin; 4 h after Rx, control 0.20
  Kidney mRNA: Haptoglobin: 0.19 ± 0.01
haptoglobin; 4 h after Rx, control 7.9
  Kidney protein: Haptoglobin: 13.1 ± 1.3
haptoglobin; 18 h after Rx, control 0.20
  Kidney mRNA cortex: Haptoglobin: 0.23 ± 0.08
haptoglobin; 18 h after Rx, control 10.3
  Kidney protein: Haptoglobin: 53.5 ± 17.2
IL-10 [2]; 4 h after Rx, control 0.56
  Kidney mRNA: IL-10: 0.39 ± 0.15
IL-10 [2]; 4 h after Rx
  Kidney protein: IL-10: 550 ± 86
IL-10 [2]; 18 h after Rx, control 0.56
  Kidney mRNA cortex: IL-10: 0.18 ± 0.09
IL-10 [2]; 18 h after Rx
  Kidney protein: IL-10: 454 ± 51
Male CD-1 mice [3]
  Protection against glycerol-induced AKI (BUN/creatinine levels): virtually no effect
HO-1 [4]; 4 h after Rx
  Liver mRNA: HO-1: 3.15 ± 0.25
  Liver protein: HO-1 protein: 7.4 ± 0.7
HO-1 [4]; 18 h after Rx
  Liver mRNA: HO-1: 2.56 ± 0.21
  Liver protein: HO-1 protein: 18 ± 2.5
HO-1 [5]; 4 h after Rx
  Cardiac mRNA: HO-1: 0.14 ± 0.01
HO-1 [5]; 18 h after Rx
  Cardiac mRNA: HO-1: 0.09 ± 0.03
HO-1 [5]; 18 h after Rx, control 1.5
  Cardiac protein: HO-1: 2.67 ± 0.4
IL-10 [6]; 4 h after Rx
  Cardiac mRNA: IL-10: 0.58 ± 0.16
IL-10 [6]; 4 h after Rx, control 8.1
  Cardiac protein: IL-10: 15.8 ± 10^
IL-10 [6]; 18 h after Rx
  Cardiac mRNA: IL-10: 0.53 ± 0.10
IL-10 [6]; 18 h after Rx, control 8
  Cardiac protein: IL-10: 23.4 ± 14^
Male CD-1 mice [7]
  Severity of maleate-induced renal injury (BUN, PCr): Neither SnPP alone nor FeS alone significantly altered
[8]
  half-life: 2 to 4 h

Reference: patent publication US20250195556A1, “COMPOSITIONS, KITS, AND METHODS TO INDUCE ACQUIRED CYTORESISTANCE USING STRESS PROTEIN INDUCERS” (FRED HUTCHINSON CANCER RESEARCH CENTER, priority 2014, published 2025)
